Where two headings read alike, the source gives them in different places.
Key:
amyloglucosidase = molecular target: T1, amyloglucosidase (Aspergillus niger, UniProt P69328); assay: amyloglucosidase (alpha-glucosidase) inhibition, p-nitrophenyl-alpha-D-glucoside substrate; format: biochemical
T1 construct: purchased Sigma Chemical Company

beta-glucosidase = beta-glucosidase inhibition, p-nitrophenyl-glycoside substrate; format: biochemical, almonds
alpha-galactosidase = alpha-galactosidase inhibition; format: biochemical, Aspergillus niger
beta-galactosidase = beta-galactosidase inhibition; format: biochemical, bovine
alpha-mannosidase = molecular target: T2, alpha-mannosidase (Canavalia ensiformis, UniProt C0HJB3); assay: alpha-mannosidase inhibition; format: biochemical, jack bean
T2 construct: purchased Sigma Chemical Company
T2 sequence (C0HJB3 whole entry): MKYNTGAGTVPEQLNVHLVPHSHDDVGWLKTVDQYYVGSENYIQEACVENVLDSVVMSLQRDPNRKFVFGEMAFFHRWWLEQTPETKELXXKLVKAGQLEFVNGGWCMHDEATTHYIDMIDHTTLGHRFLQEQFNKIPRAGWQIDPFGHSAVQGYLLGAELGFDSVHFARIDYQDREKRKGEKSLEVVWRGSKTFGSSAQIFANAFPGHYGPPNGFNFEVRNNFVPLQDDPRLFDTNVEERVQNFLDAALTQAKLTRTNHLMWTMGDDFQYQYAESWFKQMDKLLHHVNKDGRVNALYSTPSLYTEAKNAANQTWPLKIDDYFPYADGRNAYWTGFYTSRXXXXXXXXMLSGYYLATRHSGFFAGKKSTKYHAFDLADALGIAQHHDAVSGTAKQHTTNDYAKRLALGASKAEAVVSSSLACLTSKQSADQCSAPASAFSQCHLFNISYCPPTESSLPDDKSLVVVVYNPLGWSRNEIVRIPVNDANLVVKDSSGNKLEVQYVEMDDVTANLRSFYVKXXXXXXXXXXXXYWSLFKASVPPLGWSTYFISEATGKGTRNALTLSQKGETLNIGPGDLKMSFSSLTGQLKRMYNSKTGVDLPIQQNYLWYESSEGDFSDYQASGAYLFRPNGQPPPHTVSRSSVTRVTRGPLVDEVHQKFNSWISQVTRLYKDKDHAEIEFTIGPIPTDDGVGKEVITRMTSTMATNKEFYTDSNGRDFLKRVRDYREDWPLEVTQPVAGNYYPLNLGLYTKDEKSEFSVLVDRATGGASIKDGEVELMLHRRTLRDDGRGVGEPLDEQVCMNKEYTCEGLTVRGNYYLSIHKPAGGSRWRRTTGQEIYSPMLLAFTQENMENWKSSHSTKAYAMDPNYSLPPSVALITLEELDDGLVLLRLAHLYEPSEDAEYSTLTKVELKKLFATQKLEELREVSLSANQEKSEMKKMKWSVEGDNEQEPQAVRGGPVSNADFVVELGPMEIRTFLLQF

Beta-Mannosidase = Beta-Mannosidase (Aspergillus niger, UniProt Q9UUZ3); assay: beta-mannosidase inhibition; format: biochemical
Beta-Mannosidase, sequence (Q9UUZ3 22-931): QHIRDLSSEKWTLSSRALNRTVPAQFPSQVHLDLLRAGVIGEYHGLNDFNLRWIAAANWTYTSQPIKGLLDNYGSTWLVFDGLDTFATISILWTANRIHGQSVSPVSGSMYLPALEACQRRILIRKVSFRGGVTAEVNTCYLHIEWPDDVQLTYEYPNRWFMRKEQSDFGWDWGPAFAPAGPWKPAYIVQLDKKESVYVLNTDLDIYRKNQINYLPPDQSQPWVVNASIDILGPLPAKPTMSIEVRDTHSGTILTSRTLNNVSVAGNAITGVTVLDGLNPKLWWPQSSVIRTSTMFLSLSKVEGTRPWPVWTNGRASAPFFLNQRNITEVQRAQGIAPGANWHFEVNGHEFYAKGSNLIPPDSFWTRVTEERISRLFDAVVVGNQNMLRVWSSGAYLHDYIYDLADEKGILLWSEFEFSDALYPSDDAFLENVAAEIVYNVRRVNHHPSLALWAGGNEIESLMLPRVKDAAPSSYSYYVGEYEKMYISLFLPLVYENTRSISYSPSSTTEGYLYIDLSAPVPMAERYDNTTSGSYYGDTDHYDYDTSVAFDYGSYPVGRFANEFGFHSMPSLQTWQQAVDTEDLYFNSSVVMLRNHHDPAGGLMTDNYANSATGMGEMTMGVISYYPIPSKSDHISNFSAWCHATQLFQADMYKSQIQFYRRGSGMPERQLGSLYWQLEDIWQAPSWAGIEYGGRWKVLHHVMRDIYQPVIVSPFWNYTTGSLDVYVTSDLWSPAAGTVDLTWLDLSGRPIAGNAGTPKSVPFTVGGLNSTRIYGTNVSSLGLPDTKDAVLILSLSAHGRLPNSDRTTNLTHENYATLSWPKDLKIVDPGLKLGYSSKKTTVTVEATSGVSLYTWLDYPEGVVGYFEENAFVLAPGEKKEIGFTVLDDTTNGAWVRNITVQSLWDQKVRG

glycosidases = assay: glycosidase inhibitory activity against generally available glycosidases; format: biochemical
Text: GENERAL EX[…]. The alkaloids were monitored for purity by tlc on 0.25 mm silica gel plates developed with CHCl3 :MeOH:HN4 OH:H2 O (70:26:2:2) and detected by spraying with acetic anhydride followed by Ehrlich's reagent (21). Homogeneity was also checked by gc of the TMS derivatives, prepared by treatment with MSTFA in pyridine, on a Hewlett-Packard 5830 instrument equipped with a flame-ionization detector, on-column injector, and a 30-m×0.32-mm i.d. SE-30 fused silica column. Low resolution electron and ammonia chemical ionization mass spectra were obtained on a VG Micromass 7070 mass spectrometer; high resolution mass measurements were determined on the same instrument. Optical rotations were measured in a 1-dm cell on a Perkin-Elmer 241 automatic polarimeter. Nuclear magnetic resonance spectra were determined in D2 O on a Nicolet NTC 200FT spectrometer with software package at 200 MHz (^1 H) and at 50.3 MHz (^13 C) using 3-(trimethylsilyl)-1-propanesulfonic acid (TSP) as an internal standard. Multiplicities for ^13 C signals were determined by application of the carbon attached proton test (CAPT) sequence. Preparative centrifugal tlc was performed on a Chromatotron Model 7924 (Harrison Research, Palo Alto, Calif.). Enzyme assay methods have been previously described (67), Melting points are uncorrected.

intestinal sucrase = molecular target: T3, intestinal sucrase (Homo sapiens, UniProt P14410); assay: intestinal sucrase activity, sucrose as substrate; format: biochemical
T3 construct: from tissue
T3 sequence (P14410 whole entry): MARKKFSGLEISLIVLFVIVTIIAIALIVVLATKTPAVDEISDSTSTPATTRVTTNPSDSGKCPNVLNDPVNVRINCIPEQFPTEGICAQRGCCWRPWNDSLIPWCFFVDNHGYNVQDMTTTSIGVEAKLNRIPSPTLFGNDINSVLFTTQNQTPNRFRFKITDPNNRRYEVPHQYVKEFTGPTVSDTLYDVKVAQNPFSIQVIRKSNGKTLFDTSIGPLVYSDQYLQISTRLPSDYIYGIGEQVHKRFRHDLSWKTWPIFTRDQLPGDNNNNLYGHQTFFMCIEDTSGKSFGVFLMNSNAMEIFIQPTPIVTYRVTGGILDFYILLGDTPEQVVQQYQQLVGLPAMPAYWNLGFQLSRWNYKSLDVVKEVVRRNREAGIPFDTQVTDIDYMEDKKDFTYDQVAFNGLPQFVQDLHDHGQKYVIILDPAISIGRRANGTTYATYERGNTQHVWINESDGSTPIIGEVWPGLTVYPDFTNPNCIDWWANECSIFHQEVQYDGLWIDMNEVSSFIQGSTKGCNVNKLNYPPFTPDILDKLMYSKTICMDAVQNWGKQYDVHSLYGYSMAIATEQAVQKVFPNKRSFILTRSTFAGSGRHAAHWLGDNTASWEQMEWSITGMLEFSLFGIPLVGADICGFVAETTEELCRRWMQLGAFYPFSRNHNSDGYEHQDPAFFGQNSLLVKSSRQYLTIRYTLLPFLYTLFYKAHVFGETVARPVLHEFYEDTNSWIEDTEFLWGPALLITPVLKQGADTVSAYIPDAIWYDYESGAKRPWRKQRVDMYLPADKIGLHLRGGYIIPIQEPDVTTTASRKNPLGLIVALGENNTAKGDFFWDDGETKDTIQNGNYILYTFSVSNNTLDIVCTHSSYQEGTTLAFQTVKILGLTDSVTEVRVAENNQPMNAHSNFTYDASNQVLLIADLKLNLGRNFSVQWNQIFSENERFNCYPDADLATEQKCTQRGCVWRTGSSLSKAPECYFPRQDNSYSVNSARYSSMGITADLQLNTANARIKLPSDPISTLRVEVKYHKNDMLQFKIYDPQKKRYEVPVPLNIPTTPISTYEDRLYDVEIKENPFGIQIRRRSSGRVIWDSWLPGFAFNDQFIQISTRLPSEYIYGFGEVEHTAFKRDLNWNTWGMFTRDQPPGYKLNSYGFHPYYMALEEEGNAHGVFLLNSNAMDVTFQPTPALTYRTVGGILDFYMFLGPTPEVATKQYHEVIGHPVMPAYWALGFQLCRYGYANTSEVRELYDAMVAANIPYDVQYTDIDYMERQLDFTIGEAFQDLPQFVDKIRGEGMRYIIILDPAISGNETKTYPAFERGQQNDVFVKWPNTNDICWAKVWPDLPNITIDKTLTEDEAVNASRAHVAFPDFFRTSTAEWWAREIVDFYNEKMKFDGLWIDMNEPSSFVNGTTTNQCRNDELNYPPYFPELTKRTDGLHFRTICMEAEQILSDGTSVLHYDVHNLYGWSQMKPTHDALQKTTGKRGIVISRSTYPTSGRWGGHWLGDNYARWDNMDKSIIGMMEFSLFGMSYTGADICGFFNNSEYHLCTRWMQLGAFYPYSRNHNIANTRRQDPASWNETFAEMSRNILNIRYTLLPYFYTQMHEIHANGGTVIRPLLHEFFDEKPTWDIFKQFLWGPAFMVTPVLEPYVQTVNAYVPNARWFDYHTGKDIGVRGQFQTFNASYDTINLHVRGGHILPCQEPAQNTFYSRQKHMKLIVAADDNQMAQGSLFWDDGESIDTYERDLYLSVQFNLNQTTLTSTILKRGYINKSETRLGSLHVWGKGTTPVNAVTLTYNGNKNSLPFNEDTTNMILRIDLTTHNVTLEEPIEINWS
Protocol: (§1) (B) Sucrase and Maltase. Intestinal sucrase and maltase activities were determined by measuring the formation of reducing sugar from sucrose and maltitol, respectively. The reaction mixture contained 7.5 micromoles sodium citrate buffer, pH 6, 9 micromoles of substrate (sucrose or maltitol), and enzyme, in a final volume of 0.3 ml. […] For both enzymes, activity was proportional with time, and amount of protein. As described above for the arylglycosidases, inhibitors were preincubated with enzyme prior to the addition of substrate.

intestinal maltase = intestinal maltase activity, maltitol as substrate; format: biochemical
Protocol: as §1

glucosidase I = assay: processing glucosidase I, release of [3H]glucose from Glc3Man9GlcNAc; format: biochemical, mung bean
glucosidase II = assay: processing glucosidase II, release of p-nitrophenol from p-nitrophenyl-alpha-D-glucoside; format: biochemical, mung bean
[1] = test system: influenza virus glycoproteins in infected MDCK cells; conditions: cited from earlier work
[2] = test system: human immunodeficiency virus (HIV-1); assay: replication of HIV-1 in tissue culture cells; format: cell-based
uninfected MDCK cells [3] = test system: uninfected MDCK cells
Protocol: (§2) The cells then were incubated for 15-120 min with either [2-^3 H]mannose (20 micro Ci/ml) or [4,5-^3 H]leucine (10 micro Ci/ml) to label lipid-linked saccharides and cellular proteins, respectively. At the end of the labeling period, the medium was removed by aspiration, and the monolayers were washed 3 times with PB S. One ml of PBS was added to each well, the cells were dislodged by scraping, and were then quantitatively transferred to reaction tubes. Each well was washed with another 1 ml of PBS and this rinse was also added to the initial tube. […] For the incorporation of radiolabel into protein, cells were extracted with TCA at a final concentration of 20% in the presence of 500 micro g of bovine serum albumin. Following an overnight incubation at 4° C., precipitated protein was isolated by centrifugation. The precipitate was washed twice with 5% TCA, and once with absolute methanol, and then digested with Pronase as described above. Pronase-released radioactivity was measured by liquid scintillation counting.
(§3) Uninfected MDCK cells were grown in 6well Limbro tissue culture dishes.
(§4) confluency, australine was added to some wells to the final concentration
(§5) After a 2 hours incubation to allow the alkaloid to take
At the times shown, the medium
(§6) was removed by aspiration, and the monolayers were washed three times wit
(§7) PBS. The cells were released from the wells by scraping, placed in tubes,
(§8) and extracted with 20% TCA as described above. Radioactivity incorporated
(§9) into total cellular protein was determined after Pronase digestion by
liquid scintillation counting.

uninfected MDCK cells [4] = conditions: 50 micro g/ml, 60 min
Protocol: (§10) The cells then were incubated for 15-120 min with either [2-^3 H]mannose (20 micro Ci/ml) or [4,5-^3 H]leucine (10 micro Ci/ml) to label lipid-linked saccharides and cellular proteins, respectively. At the end of the labeling period, the medium was removed by aspiration, and the monolayers were washed 3 times with PB S. One ml of PBS was added to each well, the cells were dislodged by scraping, and were then quantitatively transferred to reaction tubes. Each well was washed with another 1 ml of PBS and this rinse was also added to the initial tube. Radioactivity incorporated into lipid-linked monosaccharides and oligosaccharides was determined after extraction with chloroform:methanol:water (1:1:1) and chloroform:methanol:water (10:10:3), respectively, as previously described (60).
(§11) Uninfected MDCK cells were grown in 6well Limbro tissue culture dishes. A
as §4
(§12) listed above. After a 2 hour incubation to allow the alkaloid to take
(§13) effect, [^3 H]mannose was added to a final concentration of 20 micro
(§14) Ci/ml, and the incubations were continued. At the times shown, the medium
as §6, §7
(§15) then sequentially extracted with chloroform:methanol:water (1:1:1) for
(§16) lipidlinked monosaccharides, and chloroform:methanol:water (10:10:3) for
(§17) lipidlinked oligosaccharides. The total radioactivity incorporated into
(§18) the lipidlinked sugars was determined by liquid scintillation counting.

uninfected MDCK cells [5] = assay: incorporation of [3H]mannose into lipid-linked saccharides
Protocol: as §10, §11, §4, §12, §13, §14, §6, §7, §15, §16, §17, §18

uninfected MDCK cells [6] = assay: incorporation of [3H]leucine into protein (protein synthesis)
Protocol: as §2, §3, §4, §5
At the times shown, the medium
as §6, §7, §8, §9
liquid scintillation counting.

[7] = test system: influenza virus glycoproteins in infected MDCK cells; assay: glycoprotein processing in influenza virus-infected MDCK cells (Endo H-sensitive oligosaccharides); conditions: mannose-labeled glycopeptide, printed as 10 micro g/ml
[8] = concentrations up to 500 micro M

T1 sequence (P69328 25-640): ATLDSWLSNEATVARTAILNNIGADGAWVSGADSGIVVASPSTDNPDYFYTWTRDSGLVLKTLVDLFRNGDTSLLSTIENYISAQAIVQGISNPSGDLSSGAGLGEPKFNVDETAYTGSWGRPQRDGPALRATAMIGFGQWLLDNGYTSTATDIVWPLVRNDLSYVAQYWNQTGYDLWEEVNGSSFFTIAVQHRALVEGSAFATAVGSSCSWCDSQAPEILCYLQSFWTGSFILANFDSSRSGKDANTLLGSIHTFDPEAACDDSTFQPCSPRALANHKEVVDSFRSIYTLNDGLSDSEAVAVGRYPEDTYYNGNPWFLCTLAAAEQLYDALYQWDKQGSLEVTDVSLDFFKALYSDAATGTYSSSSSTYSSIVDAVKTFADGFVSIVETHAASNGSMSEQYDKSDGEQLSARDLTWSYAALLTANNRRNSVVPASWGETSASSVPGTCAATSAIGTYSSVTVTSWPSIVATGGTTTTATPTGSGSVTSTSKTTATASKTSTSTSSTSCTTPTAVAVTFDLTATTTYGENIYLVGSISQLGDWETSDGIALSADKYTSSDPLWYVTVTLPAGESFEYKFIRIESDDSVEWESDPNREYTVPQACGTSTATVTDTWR

## OC[C@H]1NCC[C@@H](O)[C@@H]1O [fagomine, 1,2,5-trideoxy-1,5-imino-D-arabino-hexitol, reference compound]
amyloglucosidase; commercially available enzyme
  glycosidase inhibitory activity against alpha-glucosidase: No significant glycosidase inhibitory activity
beta-glucosidase
  inhibition of beta-glucosidase: No significant glycosidase inhibitory activity
alpha-galactosidase
  inhibition of alpha-galactosidase: No significant glycosidase inhibitory activity
beta-galactosidase
  inhibition of beta-galactosidase: No significant glycosidase inhibitory activity
alpha-mannosidase
  inhibition of alpha-mannosidase: No significant glycosidase inhibitory activity
Beta-Mannosidase
  inhibition of beta-mannosidase: No significant glycosidase inhibitory activity
glycosidases
  glycosidase inhibitory activity: no inhibitory activity

## O[C@H]1[C@H](O)[C@@H](O)CN2CC[C@H](O)[C@H]12 [castanospermine, reference compound]
amyloglucosidase; Example 1, read-out: Ki
  Ki: 7.9 µM
beta-glucosidase
  inhibition of beta-glucosidase: inhibited
beta-glucosidase; read-out: level which inhibited 50% of the beta-glucosidase activity
  IC50: 66 µM
Intestinal sucrase
  Ki: < 1 µM
Intestinal maltase
  Ki: < 1 µM
Glucosidase I
  Ki: ~1 µM
Glucosidase II
  inhibition of glucosidase II: inhibited by micromolar amounts
[1]
  concentration producing the same degree of inhibition (increased proportion of Endo H-susceptible glycopeptides) as 500 micro g/ml australine: 10 micro g/ml

## OC[C@@H]1[C@@H]2[C@H](O)CCN2C[C@H]1O [rosmarinecine]
glycosidases
  glycosidase inhibitory activity: lack glycosidase inhibitory activity

## OC[C@@H]1[C@@H](O)[C@H](O)[C@H]2[C@@H](O)CCN21 [australine, (1R, 2R, 3R, 7S, 7aR)-3-hydroxymethyl-1,2,7-trihydroxypyrrolizidine]
amyloglucosidase; Example 2, p-nitrophenyl-alpha-D-glucoside substrate, read-out: apparent Ki
  Ki: 5.8 µM
amyloglucosidase; Lineweaver-Burk, 0.5 and 1 micro g/ml australine
  type of inhibition: competitive
beta-glucosidase
  inhibition of beta-glucosidase: No significant inhibition
beta-glucosidase; at 66 micro M
  inhibition of beta-glucosidase activity: less than 5%
alpha-galactosidase
  inhibition of alpha-galactosidase: No significant inhibition
alpha-galactosidase; [8]
  effect on alpha-galactosidase: no apparent effect
beta-galactosidase
  inhibition of beta-galactosidase: No significant inhibition
beta-galactosidase; [8]
  effect on beta-galactosidase: no apparent effect
alpha-mannosidase
  inhibition of alpha-mannosidase: No significant inhibition
alpha-mannosidase; [8]
  effect on alpha-mannosidase: no apparent effect
Beta-Mannosidase
  inhibition of beta-mannosidase: No significant inhibition
Beta-Mannosidase; [8]
  effect on beta-mannosidase: no apparent effect
Intestinal sucrase
  Ki: ~28 µM
Intestinal maltase
  Ki: ~35 µM
Glucosidase I
  Ki: ~20 µM
Glucosidase II; [8]
  activity against glucosidase II: no activity
[2]
  inhibition of HIV-1 replication: inhibited the growth of the virus, but this alkaloid was not as effective as an inhibitor as was castanospermine
Uninfected MDCK cells [3]; 50 micro ug/ml, 30 min
  Radioactivity incorporated into protein: 9252 cpm
Uninfected MDCK cells [3]; 100 micro ug/ml, 30 min
  Radioactivity incorporated into protein: 8304 cpm
Uninfected MDCK cells [3]; 100 micro ug/ml, 60 min
  Radioactivity incorporated into protein: 1588 cpm
Uninfected MDCK cells [3]; 100 micro ug/ml, 90 min
  Radioactivity incorporated into protein: 25636 cpm
Uninfected MDCK cells [3]; 100 micro ug/ml, 120 min
  Radioactivity incorporated into protein: 32008 cpm
Uninfected MDCK cells [4]
  Radioactivity, Lipid-linked oligosaccharides: 1077 cpm
Uninfected MDCK cells [5]; 50-500 micro g/ml
  incorporation of [3H]mannose into lipid-linked oligosaccharide: appeared to be stimulated
Uninfected MDCK cells [5]; 50 micro g/ml, 15 min
  Radioactivity, Lipid-linked monosaccharides: 97 cpm
  Radioactivity, Lipid-linked oligosaccharides: 1672 cpm
Uninfected MDCK cells [5]; 50 micro g/ml, 30 min
  Radioactivity, Lipid-linked monosaccharides: 122 cpm
  Radioactivity, Lipid-linked oligosaccharides: 5021 cpm
Uninfected MDCK cells [5]; 50 micro g/ml, 60 min
  Radioactivity, Lipid-linked monosaccharides: 229 cpm
Uninfected MDCK cells [5]; 100 micro g/ml, 15 min
  Radioactivity, Lipid-linked monosaccharides: 101 cpm
  Radioactivity, Lipid-linked oligosaccharides: 2336 cpm
Uninfected MDCK cells [5]; 100 micro g/ml, 30 min
  Radioactivity, Lipid-linked monosaccharides: 151 cpm
  Radioactivity, Lipid-linked oligosaccharides: 5335 cpm
Uninfected MDCK cells [5]; 100 micro g/ml, 60 min
  Radioactivity, Lipid-linked monosaccharides: 244 cpm
  Radioactivity, Lipid-linked oligosaccharides: 1104 cpm
Uninfected MDCK cells [5]; 250 micro g/ml, 15 min
  Radioactivity, Lipid-linked monosaccharides: 107 cpm
  Radioactivity, Lipid-linked oligosaccharides: 2073 cpm
Uninfected MDCK cells [5]; 250 micro g/ml, 30 min
  Radioactivity, Lipid-linked monosaccharides: 115 cpm
  Radioactivity, Lipid-linked oligosaccharides: 5661 cpm
Uninfected MDCK cells [5]; 250 micro g/ml, 60 min
  Radioactivity, Lipid-linked monosaccharides: 212 cpm
  Radioactivity, Lipid-linked oligosaccharides: 995 cpm
Uninfected MDCK cells [5]; 500 micro g/ml, 15 min
  Radioactivity, Lipid-linked monosaccharides: 96 cpm
  Radioactivity, Lipid-linked oligosaccharides: 2957 cpm
Uninfected MDCK cells [5]; 500 micro g/ml, 30 min
  Radioactivity, Lipid-linked monosaccharides: 178 cpm
  Radioactivity, Lipid-linked oligosaccharides: 6167 cpm
Uninfected MDCK cells [5]; 500 micro g/ml, 60 min
  Radioactivity, Lipid-linked monosaccharides: 236 cpm
  Radioactivity, Lipid-linked oligosaccharides: 1108 cpm
Uninfected MDCK cells [6]; 50 micro ug/ml, 60 min
  Radioactivity incorporated into protein: 16572 cpm
Uninfected MDCK cells [6]; 50 micro ug/ml, 90 min
  Radioactivity incorporated into protein: 23341 cpm
Uninfected MDCK cells [6]; 50 micro ug/ml, 120 min
  Radioactivity incorporated into protein: 33704 cpm
Uninfected MDCK cells [6]; 50 to 500 micro g/ml, times up to 120 min
  effect on overall rate of protein synthesis: little effect
Uninfected MDCK cells [6]; 250 micro ug/ml, 30 min
  Radioactivity incorporated into protein: 8064 cpm
Uninfected MDCK cells [6]; 250 micro ug/ml, 60 min
  Radioactivity incorporated into protein: 13604 cpm
Uninfected MDCK cells [6]; 250 micro ug/ml, 90 min
  Radioactivity incorporated into protein: 27776 cpm
Uninfected MDCK cells [6]; 250 micro ug/ml, 120 min
  Radioactivity incorporated into protein: 36140 cpm
Uninfected MDCK cells [6]; 500 micro ug/ml, 30 min
  Radioactivity incorporated into protein: 9124 cpm
Uninfected MDCK cells [6]; 500 micro ug/ml, 60 min
  Radioactivity incorporated into protein: 15648 cpm
Uninfected MDCK cells [6]; 500 micro ug/ml, 90 min
  Radioactivity incorporated into protein: 26060 cpm
Uninfected MDCK cells [6]; 500 micro ug/ml, 120 min
  Radioactivity incorporated into protein: 32704 cpm
[7]
  Endo H-released proportion: 55%
